Test: xn = mol fraction of the nth substance listed
Conditions: Fluid (supercritical or subcritical phases), isochoric method

CC(F)F [1,1-difluoroethane] + O=C=O
Conditions	molar volume [m3/mol]
293.08 K, 3005 kPa, x2 = 0.873	0.000595
293.09 K, 577 kPa, x2 = 0.25	0.003751
293.09 K, 699 kPa, x2 = 0.389	0.00308
293.09 K, 930 kPa, x2 = 0.503	0.002291
293.09 K, 1290 kPa, x2 = 0.685	0.001629
293.09 K, 1572 kPa, x2 = 0.731	0.001321
293.1 K, 1257 kPa, x2 = 0.631	0.001641
298.07 K, 590 kPa, x2 = 0.25	0.003752
298.07 K, 715 kPa, x2 = 0.389	0.003081
298.07 K, 952 kPa, x2 = 0.503	0.002292
298.07 K, 1610 kPa, x2 = 0.731	0.001321
298.07 K, 3114 kPa, x2 = 0.873	0.000595
298.08 K, 1320 kPa, x2 = 0.685	0.00163
298.09 K, 1287 kPa, x2 = 0.631	0.001641
303.04 K, 3203 kPa, x2 = 0.873	0.000595
303.05 K, 602 kPa, x2 = 0.25	0.003753
303.05 K, 973 kPa, x2 = 0.503	0.002292
303.06 K, 589 kPa, x2 = 0.117	0.003796
303.06 K, 731 kPa, x2 = 0.389	0.003081
303.06 K, 1350 kPa, x2 = 0.685	0.00163
303.06 K, 1648 kPa, x2 = 0.731	0.001321
303.07 K, 1317 kPa, x2 = 0.631	0.001642
308.03 K, 602 kPa, x2 = 0.117	0.003797
308.03 K, 3292 kPa, x2 = 0.873	0.000595
308.04 K, 615 kPa, x2 = 0.25	0.003753
308.04 K, 746 kPa, x2 = 0.389	0.003082
308.04 K, 994 kPa, x2 = 0.503	0.002293
308.04 K, 1380 kPa, x2 = 0.685	0.00163
308.05 K, 1346 kPa, x2 = 0.631	0.001642
308.05 K, 1685 kPa, x2 = 0.731	0.001322
313.02 K, 615 kPa, x2 = 0.117	0.003798
313.02 K, 3380 kPa, x2 = 0.873	0.000595
313.03 K, 627 kPa, x2 = 0.25	0.003754
313.03 K, 761 kPa, x2 = 0.389	0.003083
313.03 K, 1015 kPa, x2 = 0.503	0.002293
313.03 K, 1409 kPa, x2 = 0.685	0.001631
313.03 K, 1722 kPa, x2 = 0.731	0.001322
313.04 K, 1375 kPa, x2 = 0.631	0.001642
318 K, 3467 kPa, x2 = 0.873	0.000596
318.01 K, 627 kPa, x2 = 0.117	0.003799
318.01 K, 776 kPa, x2 = 0.389	0.003084
318.01 K, 1035 kPa, x2 = 0.503	0.002294
318.01 K, 1438 kPa, x2 = 0.685	0.001631
318.02 K, 640 kPa, x2 = 0.25	0.003755
318.02 K, 1758 kPa, x2 = 0.731	0.001322
318.03 K, 1404 kPa, x2 = 0.631	0.001643
323 K, 640 kPa, x2 = 0.117	0.0038
323 K, 652 kPa, x2 = 0.25	0.003756
323 K, 791 kPa, x2 = 0.389	0.003084
323 K, 1056 kPa, x2 = 0.503	0.002294
323 K, 1467 kPa, x2 = 0.685	0.001632
323 K, 1794 kPa, x2 = 0.731	0.001322
323 K, 3554 kPa, x2 = 0.873	0.000596
323.01 K, 1433 kPa, x2 = 0.631	0.001643
327.97 K, 3638 kPa, x2 = 0.873	0.000596
327.98 K, 652 kPa, x2 = 0.117	0.003801
327.98 K, 1076 kPa, x2 = 0.503	0.002295
327.98 K, 1830 kPa, x2 = 0.731	0.001323
327.99 K, 664 kPa, x2 = 0.25	0.003757
327.99 K, 806 kPa, x2 = 0.389	0.003085
327.99 K, 1496 kPa, x2 = 0.685	0.001632
328 K, 1461 kPa, x2 = 0.631	0.001643
332.96 K, 3723 kPa, x2 = 0.873	0.000596
332.97 K, 664 kPa, x2 = 0.117	0.003801
332.97 K, 820 kPa, x2 = 0.389	0.003086
332.97 K, 1096 kPa, x2 = 0.503	0.002295
332.97 K, 1524 kPa, x2 = 0.685	0.001632
332.97 K, 1866 kPa, x2 = 0.731	0.001323
332.98 K, 676 kPa, x2 = 0.25	0.003758
332.98 K, 1489 kPa, x2 = 0.631	0.001644
337.94 K, 3807 kPa, x2 = 0.873	0.000596
337.95 K, 835 kPa, x2 = 0.389	0.003086
337.95 K, 1116 kPa, x2 = 0.503	0.002296
337.96 K, 677 kPa, x2 = 0.117	0.003802
337.96 K, 688 kPa, x2 = 0.25	0.003758
337.96 K, 1553 kPa, x2 = 0.685	0.001633
337.96 K, 1901 kPa, x2 = 0.731	0.001323
337.97 K, 1517 kPa, x2 = 0.631	0.001644
342.93 K, 3890 kPa, x2 = 0.873	0.000596
342.94 K, 850 kPa, x2 = 0.389	0.003087
342.94 K, 1136 kPa, x2 = 0.503	0.002296
342.94 K, 1580 kPa, x2 = 0.685	0.001633
342.94 K, 1936 kPa, x2 = 0.731	0.001324
342.95 K, 689 kPa, x2 = 0.117	0.003803
342.95 K, 700 kPa, x2 = 0.25	0.003759
342.96 K, 1545 kPa, x2 = 0.631	0.001645
